Converted amounts (≈) assume the structure as drawn.
Legend:
Staphylococcus aureus [1] = assay: Minimum inhibitory concentration required for the antibacterial activity against Staphylococcus aureus 13N Munchen; assay type: functional
Staphylococcus aureus [2] = assay: Minimum inhibitory concentration required for the antibacterial activity against Staphylococcus aureus 1756; assay type: functional; conditions: Staphylococcus aureus; read-out: MIC
Staphylococcus aureus [3] = assay: Minimum inhibitory concentration required for the antibacterial activity against Staphylococcus aureus 21b Belgium; assay type: functional
Staphylococcus aureus [4] = assay: Minimum inhibitory concentration required for the antibacterial activity against Staphylococcus aureus 25085; assay type: functional
Staphylococcus aureus [5] = assay: Minimum inhibitory concentration required for the antibacterial activity against Staphylococcus aureus 25463; assay type: functional
Staphylococcus aureus [6] = assay: Minimum inhibitory concentration required for the antibacterial activity against Staphylococcus aureus 25464; assay type: functional
Staphylococcus aureus [7] = assay: Minimum inhibitory concentration required for the antibacterial activity against Staphylococcus aureus 25470; assay type: functional
Staphylococcus aureus [8] = assay: Minimum inhibitory concentration required for the antibacterial activity against Staphylococcus aureus 25697; assay type: functional
Staphylococcus aureus [9] = assay: Minimum inhibitory concentration required for the antibacterial activity against Staphylococcus aureus 25768; assay type: functional
Staphylococcus aureus [10] = assay: Minimum inhibitory concentration required for the antibacterial activity against Staphylococcus aureus 41h Belgium; assay type: functional
Staphylococcus aureus [11] = assay: Minimum inhibitory concentration required for the antibacterial activity against Staphylococcus aureus 4978 Israel; assay type: functional
Staphylococcus aureus [12] = assay: Minimum inhibitory concentration required for the antibacterial activity against Staphylococcus aureus 77 Innsbruck; assay type: functional
Staphylococcus aureus [13] = assay: Minimum inhibitory concentration required for the antibacterial activity against Staphylococcus aureus 79B Innsbruck; assay type: functional
Staphylococcus aureus [14] = assay: Minimum inhibitory concentration required for the antibacterial activity against Staphylococcus aureus 86 Innsbruck; assay type: functional
Staphylococcus aureus [15] = assay: Minimum inhibitory concentration required for the antibacterial activity against Staphylococcus aureus 90 Innsbruck; assay type: functional
Staphylococcus aureus [16] = assay: Minimum inhibitory concentration for the antibacterial activity against Staphylococcus aureus 48N Munchen; assay type: functional
Staphylococcus aureus [17] = assay: Minimum inhibitory concentration required for the antibacterial activity against Staphylococcus aureus 17N Munchen; assay type: functional
Staphylococcus aureus [18] = assay: Minimum inhibitory concentration required for the antibacterial activity against Staphylococcus aureus 48N Munchen; assay type: functional
Bacteroides fragilis [19] = assay: Minimum inhibitory concentration required for the antibacterial activity against Bacillus fragilis 4891/91 Kr; assay type: functional
Bacteroides fragilis [20] = assay: Minimum inhibitory concentration required for the antibacterial activity against Bacillus fragilis DSM 2151; assay type: functional
Bacteroides fragilis [21] = assay: Minimum inhibitory concentration required for the antibacterial activity against Bacillus fragilis ES 25; assay type: functional
Bacteroides fragilis [22] = assay: Minimum inhibitory concentration required for the antibacterial activity against Bacillus fragilis GA I - 0558 Japan; assay type: functional
Bacteroides fragilis [23] = assay: Minimum inhibitory concentration required for the antibacterial activity against Bacillus fragilis Kr 1 TV; assay type: functional
Bacteroides fragilis [24] = assay: Minimum inhibitory concentration required for the antibacterial activity against Bacillus fragilis Kr II; assay type: functional
Bacteroides fragilis [25] = assay: Minimum inhibitory concentration required for the antibacterial activity against Bacillus fragilis L 1168 Italien; assay type: functional
[26] = tested on: Prevotella melaninogenica; assay: Minimum inhibitory concentration required for the antibacterial activity against Bacillus melaninogenicus Heidelberg; assay type: functional
[27] = tested on: Prevotella melaninogenica; assay: Minimum inhibitory concentration required for the antibacterial activity against Bacillus melaninogenicus Kr; assay type: functional
Bacteroides ovatus = assay: Minimum inhibitory concentration required for the antibacterial activity against Bacillus ovatus Heidelberg; assay type: functional, bacillus ovatu
[28] = tested on: Parabacteroides distasonis; assay: Minimum inhibitory concentration required for the antibacterial activity against Bacillus distasonis Heidelberg; assay type: functional
[29] = tested on: Parabacteroides distasonis; assay: Minimum inhibitory concentration required for the antibacterial activity against Bacillus distasonis Kr; assay type: functional
Bacteroides fragilis [30] = assay: Minimum inhibitory concentration required for the antibacterial activity against Bacillus fragilis 010848; assay type: functional
Bacteroides fragilis [31] = assay: Minimum inhibitory concentration required for the antibacterial activity against Bacillus fragilis 06688; assay type: functional
Bacteroides fragilis [32] = assay: Minimum inhibitory concentration required for the antibacterial activity against Bacillus fragilis 1560 I/82; assay type: functional
Bacteroides fragilis [33] = assay: Minimum inhibitory concentration required for the antibacterial activity against Bacillus fragilis 2034/35 Kr 43; assay type: functional
Bacteroides fragilis [34] = assay: Minimum inhibitory concentration required for the antibacterial activity against Bacillus fragilis 4661 Kr; assay type: functional
[35] = tested on: Bacteroides thetaiotaomicron; assay: Minimum inhibitory concentration required for the antibacterial activity against Bacillus thetaiotaomicron 235 Munchen; assay type: functional
[36] = tested on: Bacteroides thetaiotaomicron; assay: Minimum inhibitory concentration required for the antibacterial activity against Bacillus thetaiotaomicron DSM 2079; assay type: functional
Phocaeicola vulgatus = assay: Minimum inhibitory concentration required for the antibacterial activity against Bacillus valgatus Kr III; assay type: functional
Clostridium perfringens [37] = assay: Minimum inhibitory concentration required for the antibacterial activity against Clostridium perfringens 1024027; assay type: functional
Clostridium perfringens [38] = assay: Minimum inhibitory concentration required for the antibacterial activity against Clostridium perfringens 24071; assay type: functional
Clostridium perfringens [39] = assay: Minimum inhibitory concentration required for the antibacterial activity against Clostridium perfringens 24072; assay type: functional
Clostridium perfringens [40] = assay: Minimum inhibitory concentration required for the antibacterial activity against Clostridium perfringens DSM 756; assay type: functional
Clostridium butyricum = assay: Minimum inhibitory concentration required for the antibacterial activity against Clostridium butyricum; assay type: functional
Thomasclavelia ramosa = assay: Minimum inhibitory concentration required for the antibacterial activity against Clostridium ramosum DSM 1402; assay type: functional
Clostridium sporogenes = assay: Minimum inhibitory concentration required for the antibacterial activity against Clostridium sporogenes; assay type: functional
Fusobacterium nucleatum = assay: Minimum inhibitory concentration required for the antibacterial activity against Fusobacterium nucleatum DSM 20482; assay type: functional
[41] = tested on: Peptostreptococcus anaerobius; assay: Minimum inhibitory concentration required for the antibacterial activity against Peptostrept. anaer. Kr I; assay type: functional
[42] = tested on: Peptostreptococcus anaerobius; assay: Minimum inhibitory concentration required for the antibacterial activity against Peptostrept. anaer. Kr II; assay type: functional
[43] = tested on: Peptostreptococcus anaerobius; assay: Minimum inhibitory concentration required for the antibacterial activity against Peptostrept. anaer. 222 I/82; assay type: functional
[44] = tested on: Peptostreptococcus anaerobius; assay: Minimum inhibitory concentration required for the antibacterial activity against Peptostrept. anaer. DSM 20357; assay type: functional
[45] = tested on: Peptoniphilus asaccharolyticus; assay: Minimum inhibitory concentration required for the antibacterial activity against Peptococcus asacchar. DSM 20463; assay type: functional
Anaerococcus prevotii = assay: Minimum inhibitory concentration required for the antibacterial activity against Peptococcus prevotii DSM 20548; assay type: functional
[46] = tested on: Fusobacterium necrophorum; assay: Minimum inhibitory concentration required for the antibacterial activity against Sphaerophorus necrophorus Kr; assay type: functional
Clostridium septicum = assay: Minimum inhibitory concentration required for the antibacterial activity against Clostridium septicum; assay type: functional

## COc1cccc(OC)c1C(=O)N[C@@H]1C(=O)N2[C@@H]1SC(C)(C)[C@@H]2C(=O)O [METHICILLIN]
Staphylococcus aureus [1]
  MIC: 50 µg/mL (≈ 131 µM)
Staphylococcus aureus [2]
  MIC: 50 µg/mL (≈ 131 µM)
Staphylococcus aureus [3]
  MIC: > 100 µg/mL
Staphylococcus aureus [4]
  MIC: 6.25 µg/mL (≈ 16.4 µM)
Staphylococcus aureus [5]
  MIC: 1.56 µg/mL (≈ 4.1 µM)
Staphylococcus aureus [6]
  MIC: > 100 µg/mL
Staphylococcus aureus [7]
  MIC: > 100 µg/mL
Staphylococcus aureus [8]
  MIC: 6.25 µg/mL (≈ 16.4 µM)
Staphylococcus aureus [9]
  MIC: 6.25 µg/mL (≈ 16.4 µM)
Staphylococcus aureus [10]
  MIC: > 100 µg/mL
Staphylococcus aureus [11]
  MIC: ≤ 0.78 µg/mL
Staphylococcus aureus [12]
  MIC: 50 µg/mL (≈ 131 µM)
Staphylococcus aureus [13]
  MIC: 25 µg/mL (≈ 65.7 µM)
Staphylococcus aureus [14]
  MIC: 25 µg/mL (≈ 65.7 µM)
Staphylococcus aureus [15]
  MIC: 50 µg/mL (≈ 131 µM)
Staphylococcus aureus [16]
  MIC: 6.25 µg/mL (≈ 16.4 µM)
Staphylococcus aureus [17]
  MIC: 3.12 µg/mL (≈ 8.2 µM)

## CC1(C)S[C@@H]2[C@H](NC(=O)[C@H](NC(=O)N3CCN(S(C)(=O)=O)C3=O)c3ccccc3)C(=O)N2[C@H]1C(=O)O [MEZLOCILLIN]
Staphylococcus aureus [1]
  MIC: 50 µg/mL (≈ 92.7 µM)
Staphylococcus aureus [2]
  MIC: 50 µg/mL (≈ 92.7 µM)
Staphylococcus aureus [3]
  MIC: 50 µg/mL (≈ 92.7 µM)
Staphylococcus aureus [4]
  MIC: 50 µg/mL (≈ 92.7 µM)
Staphylococcus aureus [5]
  MIC: 12.5 µg/mL (≈ 23.2 µM)
Staphylococcus aureus [6]
  MIC: 100 µg/mL (≈ 185 µM)
Staphylococcus aureus [7]
  MIC: 25 µg/mL (≈ 46.3 µM)
Staphylococcus aureus [8]
  MIC: 25 µg/mL (≈ 46.3 µM)
Staphylococcus aureus [9]
  MIC: 25 µg/mL (≈ 46.3 µM)
Staphylococcus aureus [10]
  MIC: 3.12 µg/mL (≈ 5.78 µM)
Staphylococcus aureus [11]
  MIC: 3.12 µg/mL (≈ 5.78 µM)
Staphylococcus aureus [12]
  MIC: 100 µg/mL (≈ 185 µM)
Staphylococcus aureus [13]
  MIC: 50 µg/mL (≈ 92.7 µM)
Staphylococcus aureus [14]
  MIC: 50 µg/mL (≈ 92.7 µM)
Staphylococcus aureus [15]
  MIC: > 100 µg/mL
Staphylococcus aureus [17]
  MIC: 12.5 µg/mL (≈ 23.2 µM)
Staphylococcus aureus [18]
  MIC: 12.5 µg/mL (≈ 23.2 µM)

## CCn1cc(C(=O)O)c(=O)c2cc(F)c(N3CCNCC3)cc21 [NORFLOXACIN]
Bacteroides fragilis [19]
  MIC: > 16 µg/mL
Bacteroides fragilis [20]
  MIC: > 16 µg/mL
Bacteroides fragilis [21]
  MIC: > 16 µg/mL
Bacteroides fragilis [22]
  MIC: > 16 µg/mL
Bacteroides fragilis [23]
  MIC: > 16 µg/mL
Bacteroides fragilis [24]
  MIC: > 16 µg/mL
Bacteroides fragilis [25]
  MIC: > 16 µg/mL
[26]
  MIC: > 16 µg/mL
[27]
  MIC: 16 µg/mL (≈ 50.1 µM)
Bacteroides ovatus
  MIC: > 16 µg/mL
[28]
  MIC: > 16 µg/mL
[29]
  MIC: > 16 µg/mL
Bacteroides fragilis [30]
  MIC: > 16 µg/mL
Bacteroides fragilis [31]
  MIC: > 16 µg/mL
Bacteroides fragilis [32]
  MIC: > 16 µg/mL
Bacteroides fragilis [33]
  MIC: > 16 µg/mL
Bacteroides fragilis [34]
  MIC: > 16 µg/mL
[35]
  MIC: > 16 µg/mL
[36]
  MIC: > 16 µg/mL
Phocaeicola vulgatus
  MIC: > 16 µg/mL
Clostridium perfringens [37]
  MIC: 2 µg/mL (≈ 6.26 µM)
Clostridium perfringens [38]
  MIC: 4 µg/mL (≈ 12.5 µM)
Clostridium perfringens [39]
  MIC: 4 µg/mL (≈ 12.5 µM)
Clostridium perfringens [40]
  MIC: > 16 µg/mL
Clostridium butyricum
  MIC: 16 µg/mL (≈ 50.1 µM)
Thomasclavelia ramosa
  MIC: > 16 µg/mL
Clostridium sporogenes
  MIC: 16 µg/mL (≈ 50.1 µM)
Fusobacterium nucleatum
  MIC: 16 µg/mL (≈ 50.1 µM)
[41]
  MIC: > 16 µg/mL
[42]
  MIC: 2 µg/mL (≈ 6.26 µM)
[43]
  MIC: > 16 µg/mL
[44]
  MIC: > 16 µg/mL
[45]
  MIC: 4 µg/mL (≈ 12.5 µM)
Anaerococcus prevotii
  MIC: > 16 µg/mL
[46]
  MIC: 2 µg/mL (≈ 6.26 µM)
Clostridium septicum
  MIC: 16 µg/mL (≈ 50.1 µM)

## Cc1onc(-c2ccccc2)c1C(=O)N[C@@H]1C(=O)N2[C@@H]1SC(C)(C)[C@@H]2C(=O)O [OXACILLIN]
Staphylococcus aureus [1]
  MIC: > 100 µg/mL
Staphylococcus aureus [2]
  MIC: 50 µg/mL (≈ 125 µM)
Staphylococcus aureus [3]
  MIC: > 100 µg/mL
Staphylococcus aureus [4]
  MIC: 3.12 µg/mL (≈ 7.77 µM)
Staphylococcus aureus [5]
  MIC: 1.56 µg/mL (≈ 3.89 µM)
Staphylococcus aureus [6]
  MIC: > 100 µg/mL
Staphylococcus aureus [7]
  MIC: 100 µg/mL (≈ 249 µM)
Staphylococcus aureus [8]
  MIC: 1.56 µg/mL (≈ 3.89 µM)
Staphylococcus aureus [9]
  MIC: 6.25 µg/mL (≈ 15.6 µM)
Staphylococcus aureus [10]
  MIC: > 100 µg/mL
Staphylococcus aureus [11]
  MIC: ≤ 0.78 µg/mL
Staphylococcus aureus [12]
  MIC: 100 µg/mL (≈ 249 µM)
Staphylococcus aureus [13]
  MIC: 50 µg/mL (≈ 125 µM)
Staphylococcus aureus [14]
  MIC: 100 µg/mL (≈ 249 µM)
Staphylococcus aureus [15]
  MIC: > 100 µg/mL
Staphylococcus aureus [17]
  MIC: 1.56 µg/mL (≈ 3.89 µM)
Staphylococcus aureus [18]
  MIC: ≤ 0.78 µg/mL

From ChEMBL document CHEMBL1127134, “Synthesis and antibacterial activity of (1R,5R,6R)-2-tert-butyl-6-(1-hydroxyethyl)oxapenem-3-carboxylic acid” (1993)
